Measurements published in PMC10410513, “Differential roles for ACBD4 and ACBD5 in peroxisome–ER interactions and lipid metabolism” (The Journal of Biological Chemistry, 2023).

Key:
ACBD4 = target: T1, ACBD4 (Homo sapiens, UniProt Q8NC06); test: competition with […]C18:1-CoA, pull-down on Ni-NTA resin; format: binding; details: 2 uM protein, 5 uM [14C]C18:1-CoA, 0.2-20 uM competitor
T1 construct: recombinant MBP-His tagged, E. coli, amylose resin purified, tag kept
T1 sequence (Q8NC06 1-305 isoform Q8NC06-2): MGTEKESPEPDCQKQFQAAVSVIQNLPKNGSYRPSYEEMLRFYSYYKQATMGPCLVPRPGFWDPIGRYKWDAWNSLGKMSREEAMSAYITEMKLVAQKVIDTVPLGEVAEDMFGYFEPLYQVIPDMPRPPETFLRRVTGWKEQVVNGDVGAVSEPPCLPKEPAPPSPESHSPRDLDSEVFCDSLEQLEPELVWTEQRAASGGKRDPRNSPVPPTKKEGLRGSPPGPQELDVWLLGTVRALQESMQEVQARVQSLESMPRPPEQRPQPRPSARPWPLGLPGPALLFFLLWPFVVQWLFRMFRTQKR

ACBD5 = target: T2, ACBD5 (Homo sapiens, UniProt Q5T8D3); test: as above; format: binding; details: 2 uM protein, 5 uM [14C]C18:1-CoA, 0.2-20 uM competitor
T2 construct: recombinant MBP-His tagged, E. coli, amylose resin purified, tag kept
T2 sequence (Q5T8D3 1-490 isoform Q5T8D3-2): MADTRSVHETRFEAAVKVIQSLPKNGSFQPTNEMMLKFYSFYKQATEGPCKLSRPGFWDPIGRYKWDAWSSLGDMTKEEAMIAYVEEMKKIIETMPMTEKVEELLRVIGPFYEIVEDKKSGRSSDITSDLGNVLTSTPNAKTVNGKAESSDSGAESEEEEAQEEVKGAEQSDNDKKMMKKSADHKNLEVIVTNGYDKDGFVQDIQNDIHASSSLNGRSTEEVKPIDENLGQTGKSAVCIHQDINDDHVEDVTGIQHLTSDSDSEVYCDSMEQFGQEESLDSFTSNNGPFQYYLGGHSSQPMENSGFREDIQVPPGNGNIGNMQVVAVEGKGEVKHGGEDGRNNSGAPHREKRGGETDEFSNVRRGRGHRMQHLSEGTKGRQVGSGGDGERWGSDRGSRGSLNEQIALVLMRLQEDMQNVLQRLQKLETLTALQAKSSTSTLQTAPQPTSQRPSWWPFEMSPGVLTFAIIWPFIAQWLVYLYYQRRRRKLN

SMILES: CCCCCCCCCCCCCCCCCCCCCCCC(=O)SCCNC(=O)CCNC(=O)[C@H](O)C(C)(C)COP(=O)(O)OP(=O)(O)OC[C@H]1O[C@@H](n2cnc3c(N)ncnc32)[C@H](O)[C@@H]1OP(=O)(O)O [C24-CoA]
- competition with [14C]C18:1-CoA, pull-down on Ni-NTA resin (ACBD4): ACBD4, which displayed a similar preference for long and very-long acyl-CoAs
- competition with [14C]C18:1-CoA, pull-down on Ni-NTA resin (ACBD5): a stronger preference for the very-long-chain C24-CoA compared to the two long-chain acyl-CoAs
